The results in this text go back to EP0073849A1, “Novel phenyl-1,2,3,4-tetrahydrocarbazoles, their preparation and pharmaceutical compositions containing them” (priority 1981, dated 1983).

Series [1] can be described thus: in vivo. Details: species or system beagles. Particulars: dog, po.
A further series has as its system rat muricide. The series is described as follows: rat muricide test. The series is classed as in vivo. Particulars: ip, intraperitoneal administration. The text has this:
In the rat muricide test (based on the method of Horovitz et al., Int. J.

Series [2] is described as follows: in vivo. Particulars: rat, ip.
In series [3] the test system is behaviour, neurologic function, autonomic function. Particulars: rat, in vivo, ip.
The test system of series [4] is abnormal behaviour of beagles. The series is described as follows: improvement of abnormal behaviour in beagles. Particulars: Canis lupus familiaris, po; read-out: MED for improvement of abnormal behaviour in beagles. The series is classed as in vivo.
Series [5] has as its system beagles with normal behaviour. Briefly: in vivo. Particulars: dog, po.

For the molecule `COc1ccc2[nH]c3c(c2c1)CC(c1ccccc1)CC3` (stereo not drawn) [Test compound, 6-Methoxy-3-phenyl-1,2,3,4-tetrahydrocarbazole], the NOAEL at 6 h in the series “in vivo [1]” was over 60 mg/kg. The same molecule had an ED50 in the series on rat muricide of 1.7 mg/kg. In addition, the selectivity ratio in the series “in vivo [2]” was in the range of 50 to 500. In series [3], the “dosage levels that cause changes in behaviour, in neurologic function or in autonomic function” value was 100-1000 mg./kg. Further, in series [4], the minimal effective dose is 10 mg/kg.

With `CN(C)CCCN1c2ccccc2CCc2ccccc21` [Imipramine], in series [5], the “dose causing decreased motor activity and passivity” value stood at 30 mg/kg; the “dose causing decreased motor activity and passivity as multiple of the MED” value is on record as “three”; the “dose causing tremors and mydriasis” value is 10 mg/kg. The molecule further displayed an ED50 in the series with rat muricide of 6.4 mg/kg. In series [3], the “dosage levels that cause changes in behaviour, in neurologic function or in autonomic function” value was determined as 30 mg./kg. Also, the minimal effective dose in series [4] was determined as 10 mg/kg.

As for `CN(C)CCC=C1c2ccccc2CCc2ccccc21` [Amitriptyline], in the series with rat muricide, the ED50 amounted to 5.2 mg/kg.
